Source: patent publication US7538085B2, “Peptide deformylase inhibitors as novel antibiotics” (The Ohio State University Research Foundation, priority 2003, dated 2009)
In brackets after ≈: the same amount, converted by molar mass.

Columns and labels:
[1] = test system: E. coli; experiment: Antibacterial activity (cell growth, MIC); type: cell-based; conditions: Escherichia coli
Procedure: (§1) FIG. 5 Inhibition of B. subtilis (A) and E. coli (B) cell growth by inhibitor 2. An overnight culture was diluted 1000-fold into 2 mL of fresh LB medium containing the specified concentrations of inhibitor 2 and incubated at 37° C. Cell densities were measured at the specified times on a UV-vis spectrophotometer.
(§2) The in vitro antibacterial activity of the cyclic inhibitor was tested against E. coli and Bacillus subtilis, the representative Gram-negative and Gram-positive bacteria, respectively.
(§3) Antimicrobial Susceptibility Testing. For Escherichia coli and Bacillus subtilis, cell growth was monitored on the Lambda-20 UV/Vis spectrophotometer at 600 nm. A single bacterial colony from a plate culture was grown overnight in LB media and was diluted 1000-fold into 2 mL of fresh growth medium containing 0-64 μg/mL of test agent in a 5-mL glass test tube shaken at a speed of 250 rpm. Cell growth (at 37° C.) was monitored for 0-600 min.
(§4) Antibacterial Activity of PDF Inhibitors Inhibitors 2-7E were tested against two or more bacterial strains for antibacterial activities.

[2] = test system: B. subtilis; experiment: Antibacterial activity (cell growth, MIC); type: cell-based; conditions: Bacillus subtilis, read-out: MIC
Procedure: as §1, §2, §3, §4

[3] = test system: S. pneumoniae (ATCC 6301); experiment: Antibacterial activity (MIC); type: cell-based; conditions: Streptococcus pneumoniae, ATCC6301
Procedure: as §4

[4] = test system: S. pneumoniae (ATCC 49619); experiment: Antibacterial activity (MIC); type: cell-based; conditions: Streptococcus pneumoniae, ATCC49619
Procedure: as §4

[5] = test system: S. pneumoniae (ATCC 6303); experiment: Antibacterial activity (MIC); type: cell-based; conditions: Streptococcus pneumoniae, ATCC6303
Procedure: as §4

[6] = test system: S. aureus (ATCC 29213); experiment: Antibacterial activity (MIC); type: cell-based; conditions: Staphylococcus aureus, ATCC29213
Procedure: as §4

[7] = test system: E. faecalis (ATCC 29212); experiment: Antibacterial activity (MIC); type: cell-based; conditions: Enterococcus faecalis, ATCC29212
Procedure: as §4

[8] = test system: M. catarrhalis (ATCC 37054); experiment: Antibacterial activity (MIC); type: cell-based; conditions: Moraxella catarrhalis, ATCC37054
Procedure: as §4

[9] = test system: H. influenzae (ATCC 31517); experiment: Antibacterial activity (MIC); type: cell-based; conditions: Haemophilus influenzae, ATCC31517
Procedure: as §4

[10] = target: T1, Co(II)-substituted E. coli PDF (Escherichia coli, UniProt P0A6K3); experiment: PDF assay coupled to formate dehydrogenase; type: biochemical
T1 construct: made in house

[11] = target: MMP-3 (Homo sapiens, UniProt P08254); experiment: Inhibition of human matrix metalloproteases; type: biochemical; conditions: read-out: percentage of MMP-3 activity remaining; for remaining activity at 1 µM: inhibitor 1.0 μM; for remaining activity at 10 µM: inhibitor 10 μM
Procedure: (§5) Inhibition of Metalloproteases (MMP) Several of the inhibitors were tested for inhibition of human matrix metalloproteases, which are often used as indicators of inhibitor selectivity (no inhibition of MMP is desired). Each inhibitor was tested at two different concentrations (1.0 and 10 μM). The values reported are the percentage of MMP activity remaining in the presence of added inhibitor.

[12] = target: T2, MMP2 (Homo sapiens, UniProt P08253); experiment: Inhibition of human matrix metalloproteases; type: biochemical; conditions: read-out: percentage of MMP2 activity remaining; for remaining activity at 1 µM: inhibitor 1.0 μM; for remaining activity at 10 µM: inhibitor 10 μM
T2 sequence (P08253 110-660): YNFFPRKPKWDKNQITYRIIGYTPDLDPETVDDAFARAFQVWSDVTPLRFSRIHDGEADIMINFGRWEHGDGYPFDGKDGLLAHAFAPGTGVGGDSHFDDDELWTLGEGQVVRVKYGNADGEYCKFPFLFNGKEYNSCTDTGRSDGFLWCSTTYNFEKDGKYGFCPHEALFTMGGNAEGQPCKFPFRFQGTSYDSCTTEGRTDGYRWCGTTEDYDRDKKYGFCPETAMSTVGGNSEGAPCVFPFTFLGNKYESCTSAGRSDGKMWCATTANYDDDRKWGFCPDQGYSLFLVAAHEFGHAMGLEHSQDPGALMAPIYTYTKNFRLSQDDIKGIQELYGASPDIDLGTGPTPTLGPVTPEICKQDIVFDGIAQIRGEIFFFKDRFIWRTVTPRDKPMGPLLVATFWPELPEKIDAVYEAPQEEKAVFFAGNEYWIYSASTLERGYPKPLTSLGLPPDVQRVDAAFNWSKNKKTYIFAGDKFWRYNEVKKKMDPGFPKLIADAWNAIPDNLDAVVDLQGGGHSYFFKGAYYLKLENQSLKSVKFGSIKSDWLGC
Procedure: as §5

[13] = target: T3, MMP-1 (Homo sapiens, UniProt P03956); experiment: Inhibition of human matrix metalloproteases; type: biochemical; conditions: read-out: percentage of MMP-1 activity remaining; for remaining activity at 1 µM: inhibitor 1.0 μM; for remaining activity at 10 µM: inhibitor 10 μM
T3 sequence (P03956 100-469): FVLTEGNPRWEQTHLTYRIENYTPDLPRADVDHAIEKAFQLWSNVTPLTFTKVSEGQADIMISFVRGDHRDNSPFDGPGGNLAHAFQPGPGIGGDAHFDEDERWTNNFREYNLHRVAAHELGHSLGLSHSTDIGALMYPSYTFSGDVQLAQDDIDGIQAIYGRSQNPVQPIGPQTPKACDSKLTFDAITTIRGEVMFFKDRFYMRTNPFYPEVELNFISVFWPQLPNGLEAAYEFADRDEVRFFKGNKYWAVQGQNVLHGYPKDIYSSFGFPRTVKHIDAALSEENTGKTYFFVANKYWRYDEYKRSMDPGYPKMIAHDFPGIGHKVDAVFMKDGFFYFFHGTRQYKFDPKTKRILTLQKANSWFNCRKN
Procedure: as §5

[14] = target: MMP-9 (Homo sapiens, UniProt P14780); experiment: Inhibition of human matrix metalloproteases; type: biochemical; conditions: read-out: percentage of MMP-9 activity remaining; for remaining activity at 1 µM: inhibitor 1.0 μM; for remaining activity at 10 µM: inhibitor 10 μM
Procedure: as §5

[15] = Stability of inhibitors in rat plasma; type: in vitro ADME; conditions: 37° C., LC-MS
Procedure: FIG. 7 Comparison of the in vitro stability of PDF inhibitors 6 (cyclic) and 9 (acyclic) in rat plasma.
Stability of Inhibitors Inhibitors 6E and comparative compound 9 were chosen to test for the effect of cyclization on inhibitor stability. They both have an L-lysine as the P2′ residue and are expected to be sensitive to proteolytic degradation by trypsin-like enzymes. Both inhibitors were incubated in rat plasma at 37° C. and aliquots were withdrawn at various times and analyzed by LC-MS. […] Our attempts to identify the degradation products by mass spectrometry failed.

[16] = test system: human matrix metalloproteases; experiment: Inhibition of human matrix metalloproteases, overall statement; type: biochemical; conditions: MMP-1, MMP2, MMP-3, MMP-9; 1.0 and 10 μM
Procedure: as §5, with “inhibitor. […] The acyclic inhibitors are flexible and can adopt different conformations to fit the active sites of both PDF and MMP's.” for “inhibitor.”

T1 sequence (P0A6K3 whole entry): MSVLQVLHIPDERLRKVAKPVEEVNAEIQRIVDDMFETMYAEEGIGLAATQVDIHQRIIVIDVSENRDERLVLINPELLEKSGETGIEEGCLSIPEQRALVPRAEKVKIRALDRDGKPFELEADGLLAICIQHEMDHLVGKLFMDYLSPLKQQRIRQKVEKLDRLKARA
MMP-3, sequence (P08254 100-477): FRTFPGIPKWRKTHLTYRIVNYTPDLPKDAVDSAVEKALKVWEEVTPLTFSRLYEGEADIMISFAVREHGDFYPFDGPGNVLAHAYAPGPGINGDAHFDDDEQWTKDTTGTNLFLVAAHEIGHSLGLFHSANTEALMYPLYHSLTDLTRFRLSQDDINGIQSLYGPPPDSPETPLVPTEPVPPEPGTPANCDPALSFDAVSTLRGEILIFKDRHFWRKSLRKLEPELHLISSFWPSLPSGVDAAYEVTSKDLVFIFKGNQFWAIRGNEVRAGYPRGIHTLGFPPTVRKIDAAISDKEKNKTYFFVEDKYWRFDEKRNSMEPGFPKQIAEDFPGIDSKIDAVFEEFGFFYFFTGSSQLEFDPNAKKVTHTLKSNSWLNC
MMP-9, sequence (P14780 94-707): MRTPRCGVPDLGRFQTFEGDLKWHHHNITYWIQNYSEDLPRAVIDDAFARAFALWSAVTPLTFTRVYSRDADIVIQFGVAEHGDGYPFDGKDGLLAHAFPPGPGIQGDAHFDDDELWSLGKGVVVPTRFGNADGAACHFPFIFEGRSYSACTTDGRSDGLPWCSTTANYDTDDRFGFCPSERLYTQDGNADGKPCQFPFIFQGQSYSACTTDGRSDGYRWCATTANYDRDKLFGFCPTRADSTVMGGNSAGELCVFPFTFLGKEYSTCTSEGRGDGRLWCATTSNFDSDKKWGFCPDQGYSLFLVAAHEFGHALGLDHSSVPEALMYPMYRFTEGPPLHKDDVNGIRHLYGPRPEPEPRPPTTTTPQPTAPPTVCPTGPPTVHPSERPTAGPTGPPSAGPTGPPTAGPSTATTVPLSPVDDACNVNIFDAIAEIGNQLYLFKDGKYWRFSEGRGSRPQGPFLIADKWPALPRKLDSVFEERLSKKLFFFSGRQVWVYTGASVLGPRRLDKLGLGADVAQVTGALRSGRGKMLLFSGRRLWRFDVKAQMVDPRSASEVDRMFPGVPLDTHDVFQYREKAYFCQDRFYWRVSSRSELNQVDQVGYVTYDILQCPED

SMILES	MIC [1]	MIC [2]	MIC [3]	MIC [4]	MIC [5]	MIC [6]	MIC [7]	MIC [8]	MIC [9]	Ki [10]	remaining activity at 1 µM [11]	remaining activity at 10 µM [11]	remaining activity at 1 µM [12]	remaining activity at 10 µM [12]	remaining activity at 1 µM [13]	remaining activity at 10 µM [13]	remaining activity at 1 µM [14]	remaining activity at 10 µM [14]	degradation (loss) in rat plasma after 5 h [15]	inhibition of the MMPs (in words) [16]
CC(C)(C)[C@@H]1NC(=O)[C@@H](CN(O)C=O)CCCCCCCCCCCCCCNC1=O [Compound 5E]	> 24 µg/mL	~16 µg/mL (≈ 36.4 µM)	8 µg/mL (≈ 18.2 µM)	8 µg/mL (≈ 18.2 µM)	4 µg/mL (≈ 9.1 µM)	> 32 µg/mL	> 32 µg/mL	< 0.031 µg/mL	> 32 µg/mL	0.025 ± 0.006 µM	97%	96%	100%	100%	93%	92%	96%	94%		
NCCCC[C@@H]1NC(=O)[C@@H](CN(O)C=O)CCCCCCCCCNC1=O [Compound 6E]	4 to 8 µg/mL (≈ 10.4 to 20.8 µM)	~8 µg/mL (≈ 20.8 µM)								0.003 ± 0.0013 µM									no detectable degradation	
NCCCC[C@@H]1NC(=O)[C@@H](CN(O)C=O)CCCCCCCCCCCCCCNC1=O [Compound 7E]	> 32 µg/mL	> 32 µg/mL	> 32 µg/mL	> 32 µg/mL	> 32 µg/mL	32 µg/mL (≈ 70.4 µM)	32 µg/mL (≈ 70.4 µM)	1 µg/mL (≈ 2.2 µM)	32 µg/mL (≈ 70.4 µM)	0.036 ± 0.009 µM	100%	94%	94%	85%	99%	93%	96%	95%		
CC(=O)NCCCC[C@@H]1NC(=O)[C@@H](CN(O)C=O)CCCCCCCCCNC1=O [Compound 8E]										0.012 ± 0.004 µM	100%	92%	83%	80%	97%	87%	92%	92%		
CCCCCCNC(=O)[C@H](CCCCN)NC(=O)[C@H](CCCCC)CN(O)C=O [Compound 9C, reference compound]											19%	1%	27%	2%	50%	0%	39%	6%	approximately 25%	substantial inhibition of all of the MMP's
CCCC[C@H](CN(O)C=O)C(=O)N[C@@H](CCCCN)C(=O)Nc1ccccc1 [Compound 10C, reference compound]										0.018 ± 0.001 µM	32%	27%	66%	45%	50%	3%	46%	11%		substantial inhibition of all of the MMP's
